This test concerns the target T1, Tau P301L (Homo sapiens, UniProt P10636, P618L).
T1 construct: expressed in transfected cells
The test is described as follows: In vitro tau degradation assay in CHOK1 Tau P301L cells (sarkosyl insoluble tau, WES). It is filed as cell-based. To be noted: CHO-K1; CHOK1 Tau P301L cells; remaining tau in sarkosyl insoluble pellet; 48 hours with test compound at 1 μM, doxycycline removed for last 24 hours; relative to DMSO doxycycline control; read-out: Tau Protein Degradation effect at 1 μM. An outline of the steps:
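Sarkosyl-insoluble pellet tau, measured by WES capillary immunoassay (Tau1 antibody), was scored against DMSO doxycycline control as ≤50% or >50% remaining. Cells were CHOK1 clone D1 expressing Tau P301L under doxycycline (1 μg/ml), given 1 μM compound for 48 h with doxycycline withdrawn during the last 24 h.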

T1 sequence (P10636 1-441 isoform P10636-8 P301L): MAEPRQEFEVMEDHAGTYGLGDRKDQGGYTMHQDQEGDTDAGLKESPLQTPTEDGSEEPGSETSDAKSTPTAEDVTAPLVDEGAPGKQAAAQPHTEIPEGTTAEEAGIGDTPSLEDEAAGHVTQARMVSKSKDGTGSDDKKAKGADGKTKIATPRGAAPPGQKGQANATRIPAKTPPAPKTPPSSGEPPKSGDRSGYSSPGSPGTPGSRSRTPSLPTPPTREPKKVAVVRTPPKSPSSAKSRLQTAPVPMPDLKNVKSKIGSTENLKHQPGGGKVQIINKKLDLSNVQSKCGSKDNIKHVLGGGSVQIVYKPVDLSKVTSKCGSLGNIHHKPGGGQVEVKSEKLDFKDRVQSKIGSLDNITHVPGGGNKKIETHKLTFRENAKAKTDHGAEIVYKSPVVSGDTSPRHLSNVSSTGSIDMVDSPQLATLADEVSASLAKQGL

For `O=C1CCC(N2C(=O)c3ccc(N4CCC(CN5CCC(O[C@H]6C[C@H](Oc7ccc8c9cnccc9n(C(F)F)c8c7)C6)CC5)CC4)cc3C2=O)C(=O)N1` (stereo partly drawn) [Compound 605, 5-(4-((4-((1r,3r)-3-((5-(difluoromethyl)-5H-pyrido[4,3-b]indol-7-yl)oxy)cyclobutoxy)piperidin-1-yl)methyl)piperidin-1-yl)-2-(2,6-dioxopiperidin-3-yl)isoindoline-1,3-dione], the remaining activity at 1 µM is below 50%.
Regarding `O=C1CCC(N2Cc3nc(N4CCN(CCC5CCN(c6ncc(-c7ccc8c9cnccc9n(C(F)F)c8c7)cc6F)CC5)CC4)ccc3C2=O)C(=O)N1` (stereo not drawn) [Compound 607, 3-(2-(4-(2-(1-(5-(5-(difluoromethyl)-5H-pyrido[4,3-b]indol-7-yl)-3-fluoropyridin-2-yl)piperidin-4-yl)ethyl)piperazin-1-yl)-5-oxo-5,7-dihydro-6H-pyrrolo[3,4-b]pyridin-6-yl)piperidine-2,6-dione], the remaining activity at 1 µM is above 50%.
The result for `O=C1CCC(N2C(=O)c3cc(F)c(N4CCN(CC5CCN(c6ncc(-c7ccc8c9cnccc9n(C(F)F)c8c7)cc6F)CC5)CC4)cc3C2=O)C(=O)N1` (stereo not drawn) [Compound 608, 5-(4-((1-(5-(5-(difluoromethyl)-5H-pyrido[4,3-b]indol-7-yl)-3-fluoropyridin-2-yl)piperidin-4-yl)methyl)piperazin-1-yl)-2-(2,6-dioxopiperidin-3-yl)-6-fluoroisoindoline-1,3-dione] reads above 50%; that for `CC(C)(C1CCN(c2ncc(-c3ccc4c5cnccc5n(C(F)F)c4c3)cc2F)CC1)N1CCN(c2ccc3c(c2)C(=O)N(C2CCC(=O)NC2=O)C3=O)CC1` (stereo not drawn) [Compound 609, 5-(4-(2-(1-(5-(5-(difluoromethyl)-5H-pyrido[4,3-b]indol-7-yl)-3-fluoropyridin-2-yl)piperidin-4-yl)propan-2-yl)piperazin-1-yl)-2-(2,6-dioxopiperidin-3-yl)isoindoline-1,3-dione], below 50%.
`O=C1CCC(N2C(=O)c3ccc(N4CCN(CCOCCN5CCCc6cc(-c7ccc8c9cnccc9n(C(F)F)c8c7)cc(F)c65)CC4)cc3C2=O)C(=O)N1` (stereo not drawn) [Compound 611, 5-(4-(2-(2-(6-(5-(difluoromethyl)-5H-pyrido[4,3-b]indol-7-yl)-8-fluoro-3,4-dihydroquinolin-1(2H)-yl)ethoxy)ethyl)piperazin-1-yl)-2-(2,6-dioxopiperidin-3-yl)isoindoline-1,3-dione]: the remaining activity at 1 µM is below 50%.
Regarding `O=C1CCC(N2C(=O)c3ccc(N4CCN(C5CC6(CCN(c7ncc(-c8ccc9c%10cnccc%10n(C(F)F)c9c8)cc7F)CC6)C5)CC4)cc3C2=O)C(=O)N1` (stereo not drawn) [Compound 613, 5-(4-(7-(5-(5-(difluoromethyl)-5H-pyrido[4,3-b]indol-7-yl)-3-fluoropyridin-2-yl)-7-azaspiro[3.5]nonan-2-yl)piperazin-1-yl)-2-(2,6-dioxopiperidin-3-yl)isoindoline-1,3-dione], the remaining activity at 1 µM is above 50%.
The figure for `O=C1CCC(N2C(=O)c3ccc(N4CCN(CC5CC6(CCN(c7ncc(-c8ccc9c%10cnccc%10n(C(F)F)c9c8)cc7F)CC6)C5)CC4)cc3C2=O)C(=O)N1` (stereo not drawn) [Compound 614, 5-(4-((7-(5-(5-(difluoromethyl)-5H-pyrido[4,3-b]indol-7-yl)-3-fluoropyridin-2-yl)-7-azaspiro[3.5]nonan-2-yl)methyl)piperazin-1-yl)-2-(2,6-dioxopiperidin-3-yl)isindoline-1,3-dione] is above 50%.
The figure for `COc1ccc2nc(/C=C/C=C/c3ccc(OCCOCCOc4ccc5c(c4)C(=O)N(C4CCC(=O)NC4=O)C5=O)nc3)sc2c1` (stereo not drawn) [Compound 626, 2-(2,6-dioxopiperidin-3-yl)-5-(2-(2-((5-((1E,3E)-4-(6-methoxybenzo[d]thiazol-2-yl)buta-1,3-dien-1-yl)pyridin-2-yl)oxy)ethoxy)ethoxy) isoindoline-1,3-dione] is below 50%; for `COc1ccc2nc(/C=C/C=C/c3ccc(OCCOCCOCCOCCOc4ccc5c(c4)C(=O)N(C4CCC(=O)NC4=O)C5=O)nc3)sc2c1` (stereo not drawn) [Compound 628, 2-(2,6-dioxopiperidin-3-yl)-5-(2-(2-(2-(2-((5-((1E,3E)-4-(6-methoxybenzo[d]thiazol-2-yl)buta-1,3-dien-1-yl)pyridin-2-yl)oxy)ethoxy)ethoxy)ethoxy)ethoxy) isoindoline-1,3-dione] it is below 50%; for `O=C1CCC(N2C(=O)c3ccc(N4CCN(CCC5CCN(Cc6ncc(-c7ccc8c9cnccc9n(C(F)F)c8c7)cc6F)CC5)CC4)cc3C2=O)C(=O)N1` (stereo not drawn) [Compound 632, 5-(4-(2-(1-((5-(5-(difluoromethyl)-5H-pyrido[4,3-b]indol-7-yl)-3-fluoropyridin-2-yl)methyl)piperidin-4-yl)ethyl)piperazin-1-yl)-2-(2,6-dioxopiperidin-3-yl)isoindoline-1,3-dione] it is below 50%.
On to `O=C1CCC(N2C(=O)c3ccc(N4CCC(CCN5CCN(C6CCN(c7ccc8c9cnccc9n(C(F)F)c8c7)CC6)CC5)CC4)cc3C2=O)C(=O)N1` (stereo not drawn) [Compound 633, 5-(4-(2-(4-(1-(5-(difluoromethyl)-5H-pyrido[4,3-b]indol-7-yl)piperidin-4-yl)piperazin-1-yl)ethyl)piperidin-1-yl)-2-(2,6-dioxopiperidin-3-yl)isoindoline-1,3-dione], for which the remaining activity at 1 µM was below 50%.
As to `CN1CCc2c([nH]c3cc(-c4cnc(N5CCC(CCN6CCN(c7ccc8c(c7)C(=O)N(C7CCC(=O)NC7=O)C8=O)CC6)CC5)c(F)c4)ccc23)C1` (stereo not drawn) [Compound 634, 2-(2,6-dioxopiperidin-3-yl)-5-(4-(2-(1-(3-fluoro-5-(2-methyl-2,3,4,9-tetrahydro-1H-pyrido[3,4-b]indol-7-yl)pyridin-2-yl)piperidin-4-yl)ethyl)piperazin-1-yl)isoindoline-1,3-dione], the remaining activity at 1 µM was below 50%.
Regarding `COc1cc(N2CCN(CCC3CCN(c4ncc(-c5ccc6c7cnccc7n(C(F)F)c6c5)cc4F)CC3)CC2)cc2c1C(=O)N(C1CCC(=O)NC1=O)C2=O` (stereo not drawn) [Compound 635, 6-(4-(2-(1-(5-(5-(difluoromethyl)-5H-pyrido[4,3-b]indol-7-yl)-3-fluoropyridin-2-yl)piperidin-4-yl)ethyl)piperazin-1-yl)-2-(2,6-dioxopiperidin-3-yl)-4-methoxyisoindoline-1,3-dione], the remaining activity at 1 µM is below 50%.
The figure for `O=C1CCC(N2C(=O)c3ccc(OCCC4CCN(C[C@H]5C[C@H](Oc6ncc(-c7ccc8c9cnccc9n(C(F)F)c8c7)cc6F)C5)CC4)cc3C2=O)C(=O)N1` (stereo partly drawn) [Compound 636, 5-(2-(1-(((1r,3r)-3-((5-(5-(difluoromethyl)-5H-pyrido[4,3-b]indol-7-yl)-3-fluoropyridin-2-yl)oxy)cyclobutyl)methyl)piperidin-4-yl)ethoxy)-2-(2,6-dioxopiperidin-3-yl)isoindoline-1,3-dione] is above 50%.
Turning to `CC(C)N(C1CCN(c2ncc(-c3ccc4c5cnccc5n(C(F)F)c4c3)cc2F)CC1)[C@H]1C[C@H](Oc2ccc3c(c2)C(=O)N(C2CCC(=O)NC2=O)C3=O)C1` (stereo partly drawn) [Compound 638], the remaining activity at 1 µM was below 50%.
The figure for `O=C1CCC(N2C(=O)c3cc(F)c(N4CCCN(CCC5CCN(c6ncc(-c7ccc8c9cnccc9n(C(F)F)c8c7)cc6F)CC5)CC4)cc3C2=O)C(=O)N1` (stereo not drawn) [Compound 639, 5-(4-(2-(1-(5-(5-(difluoromethyl)-5H-pyrido[4,3-b]indol-7-yl)-3-fluoropyridin-2-yl)piperidin-4-yl)ethyl)-1,4-diazepan-1-yl)-2-(2,6-dioxopiperidin-3-yl)-6-fluoroisoindoline-1,3-dione] is below 50%; for `O=C1CCC(N2C(=O)c3cc(F)c(N4CCC(CN5CC6(C5)CN(C[C@H]5C[C@H](Oc7ccc(-c8ccc9c%10cnccc%10n(C(F)F)c9c8)cn7)C5)C6)CC4)cc3C2=O)C(=O)N1` (stereo partly drawn) [Compound 640, 5-(4-((6-(((1r,3r)-3-((5-(5-(difluoromethyl)-5H-pyrido[4,3-b]indol-7-yl)pyridin-2-yl)oxy)cyclobutyl)methyl)-2,6-diazaspiro[3.3]heptan-2-yl)methyl)piperidin-1-yl)-2-(2,6-dioxopiperidin-3-yl)-6-fluoroisoindoline-1,3-dione] it is below 50%; for `O=C1CCC(N2C(=O)c3cc(N4CCN(CCC5CCN(c6ncc(-c7ccc8c9cnccc9n(C(F)F)c8c7)cc6F)CC5)CC4)cc(C(F)F)c3C2=O)C(=O)N1` (stereo not drawn) [Compound 641, 4-(difluoromethyl)-6-(4-(2-(1-(5-(5-(difluoromethyl)-5H-pyrido[4,3-b]indol-7-yl)-3-fluoropyridin-2-yl)piperidin-4-yl)ethyl)piperazin-1-yl)-2-(2,6-dioxopiperidin-3-yl)isoindoline-1,3-dione] it is below 50%.
The figure for `O=C1CCC(N2C(=O)c3cc(F)c(N4CC5(CN(CCC6CCN(c7ncc(-c8ccc9c%10cnccc%10n(C(F)F)c9c8)cc7F)CC6)C5)C4)cc3C2=O)C(=O)N1` (stereo not drawn) [Compound 642, 5-(6-(2-(1-(5-(5-(difluoromethyl)-5H-pyrido[4,3-b]indol-7-yl)-3-fluoropyridin-2-yl)piperidin-4-yl)ethyl)-2,6-diazaspiro[3.3]heptan-2-yl)-2-(2,6-dioxopiperidin-3-yl)-6-fluoroisoindoline-1,3-dione] is below 50%.
As to `O=C1CCC(N2C(=O)c3cc(F)c(OCCN4CCC(O[C@H]5C[C@@H](N6CCC(c7ccc8c9cnccc9n(C(F)F)c8c7)CC6)C5)CC4)cc3C2=O)C(=O)N1` (stereo partly drawn) [Compound 644], the remaining activity at 1 µM is below 50%.
In the case of `O=C1CCC(N2C(=O)c3cc(F)c(N4CCN(CCC5CCN(c6ncc(-c7c(F)cc8c9cnccc9n(CC(F)(F)F)c8c7F)cn6)CC5)CC4)cc3C2=O)C(=O)N1` (stereo not drawn) [Compound 645, 5-(4-(2-(1-(5-(6,8-difluoro-5-(2,2,2-trifluoroethyl)-5H-pyrido[4,3-b]indol-7-yl)pyrimidin-2-yl)piperidin-4-yl)ethyl)piperazin-1-yl)-2-(2,6-dioxopiperidin-3-yl)-6-fluoroisoindoline-1,3-dione], the remaining activity at 1 µM was below 50%.

The values are drawn from patent US11912699B2, “Tau-protein targeting compounds and associated” (Arvinas Operations, Inc., priority 2019, dated 2024).
